Measurements reported in patent publication US11618747B2, “LXR modulators with bicyclic core moiety” (OrsoBio, Inc., priority 2018, dated 2023).

Experiments:
[1] = target: T1, full length (FL) LXRβ (Homo sapiens, UniProt P55055, DUP175-175); experiment: LXR Gal4 reporter transient transfection assay (FL-M2H Gal4β); type: cell-based; settings: HEK293 cells, full length LXRβ; read-out: FL-M2H Gal4β (EC50 range)
T1 construct: the full length (FL) proteins of LXRα (amino acids 1-447); NP005684; NP009052; expressed in transfected cells; host or cells: HEK293
T1 sequence (P55055 with tags, fused parts or gaps DUP175-175): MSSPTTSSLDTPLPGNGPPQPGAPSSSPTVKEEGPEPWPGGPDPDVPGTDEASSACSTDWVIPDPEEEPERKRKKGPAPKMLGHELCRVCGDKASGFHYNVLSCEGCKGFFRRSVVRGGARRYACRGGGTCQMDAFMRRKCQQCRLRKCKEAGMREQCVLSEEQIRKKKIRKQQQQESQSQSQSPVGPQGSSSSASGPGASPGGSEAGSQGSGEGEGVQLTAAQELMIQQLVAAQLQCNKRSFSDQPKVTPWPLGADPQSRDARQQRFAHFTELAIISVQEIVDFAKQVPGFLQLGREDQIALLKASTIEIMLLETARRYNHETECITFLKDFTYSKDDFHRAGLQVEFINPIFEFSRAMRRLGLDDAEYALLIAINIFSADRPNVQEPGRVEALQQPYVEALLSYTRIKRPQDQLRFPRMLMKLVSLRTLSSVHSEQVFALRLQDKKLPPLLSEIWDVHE
Outline: (§1)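 Luminescence readout: Firefly luciferase driven by GAL4 response elements reports LXR–cofactor interaction, normalised against cotransfected Renilla luciferase. The system used HEK293 cells expressing LXR full length or ligand-binding domain fused to the NFkB activation domain, with SRC1 or NCoR domains on GAL4 DBD; compound exposure was 16 h.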

[2] = target: T2, full length (FL) LXRα (Homo sapiens, UniProt Q13133); experiment: LXR Gal4 reporter transient transfection assay (FL-M2H Gal4α); type: cell-based; settings: HEK293 cells, full length LXRα; read-out: FL-M2H Gal4α (EC50 range)
T2 construct: the full length (FL) proteins of LXRα (amino acids 1-447); NP005684; expressed in transfected cells; host or cells: HEK293
T2 sequence (Q13133 1-447): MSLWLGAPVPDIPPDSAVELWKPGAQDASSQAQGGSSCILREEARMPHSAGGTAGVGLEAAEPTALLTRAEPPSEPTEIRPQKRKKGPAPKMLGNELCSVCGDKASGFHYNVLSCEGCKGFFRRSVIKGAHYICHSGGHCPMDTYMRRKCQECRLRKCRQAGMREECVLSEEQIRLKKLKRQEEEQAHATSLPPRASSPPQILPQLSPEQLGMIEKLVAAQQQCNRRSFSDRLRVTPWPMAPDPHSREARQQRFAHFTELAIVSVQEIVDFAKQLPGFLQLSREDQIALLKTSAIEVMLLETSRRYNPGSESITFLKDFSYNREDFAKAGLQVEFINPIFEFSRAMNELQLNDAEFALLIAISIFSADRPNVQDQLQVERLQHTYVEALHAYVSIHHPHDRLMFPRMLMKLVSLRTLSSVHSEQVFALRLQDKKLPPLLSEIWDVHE
Outline: as §1

[3] = target: T3, LXRβ ligand-binding domain (Homo sapiens, UniProt P55055, DUP175-175); experiment: TR-FRETβ activity assay (NCoA3 coactivator peptide recruitment); type: biochemical; settings: TR-FRET, 1 μM 24(S)-25-epoxycholesterol prestimulation; read-out: FRETβ (EC50 range)
T3 construct: amino acids 156-461; NP009052; made in house; host or cells: E. coli
T3 sequence (P55055 with tags, fused parts or gaps DUP175-175 limits assumed): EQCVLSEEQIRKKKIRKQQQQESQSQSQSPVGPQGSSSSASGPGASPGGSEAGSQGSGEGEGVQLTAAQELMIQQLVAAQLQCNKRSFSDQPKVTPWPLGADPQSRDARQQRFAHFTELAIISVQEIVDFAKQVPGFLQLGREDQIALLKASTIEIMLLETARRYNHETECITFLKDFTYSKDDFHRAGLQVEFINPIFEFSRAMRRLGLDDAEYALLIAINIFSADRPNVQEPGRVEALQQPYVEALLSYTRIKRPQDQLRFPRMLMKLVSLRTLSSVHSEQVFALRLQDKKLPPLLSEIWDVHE
Outline: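 Inverse agonism assessed by loss of coactivator recruitment, read as TR-FRET 665/615 nm after 1 h equilibration at 4 °C, in triplicate. Ten-point titration from 50 μM to 0.002 μM against LXRβ LBD (76 nM, GST fusion) prestimulated with 1 μM 24(S)-25-epoxycholesterol, with 400 nM NCoA3 peptide, pH 6.8. Sulfonyl acetic acids kept as 20 mM DMSO stocks with 100 mM TFA.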

| Structure (SMILES) | EC50 [1] | EC50 [2] | EC50 [3] |
| --- | --- | --- | --- |
| N#Cc1ccc(S(=O)(=O)n2c(-c3cccc(-c4ccc(C(=O)O)cc4Cl)c3)c(-c3ccsc3C#N)c3cc(F)ccc32)cc1 [11/20] | < 100 nM | < 100 nM | 100 to 1000 nM |
| O=C(O)c1ccc(-c2cccc(-c3c(-c4ccsc4C(F)F)c4cc(F)ccc4n3S(=O)(=O)c3ccc(Cl)cc3)c2)c(Cl)c1 [11/21] | < 100 nM | < 100 nM | < 100 nM |
| O=C(O)c1ccc(-c2cccc(-c3c(-c4ccsc4C(F)(F)F)c4cc(F)ccc4n3S(=O)(=O)c3ccc(C(F)F)cc3)c2)c(Cl)c1 [11/22] | < 100 nM | < 100 nM | < 100 nM |
| Cc1n[nH]c(C)c1-c1c(-c2cccc(-c3ccc(C(=O)O)cc3Cl)c2)n(S(=O)(=O)c2ccc(C(F)F)cc2)c2ccc(F)cc12 [11/24] | 100 to 1000 nM | 100 to 1000 nM | 100 to 1000 nM |
| O=C(O)c1ccc(-c2cccc(-c3c(-c4cn[nH]c4C(F)(F)F)c4cc(F)ccc4n3S(=O)(=O)c3ccc(C(F)F)cc3)c2)c(Cl)c1 [11/25] | < 100 nM | 100 to 1000 nM | 100 to 1000 nM |
| N#Cc1ccccc1-c1c(-c2cccc(-c3ccc(C(=O)O)c4c3OCO4)c2)n(S(=O)(=O)c2ccc(C(F)F)cc2)c2ccc(F)cc12 [11/28] | < 100 nM | < 100 nM | < 100 nM |
| COc1cc(C(=O)O)ccc1-c1cccc(-c2c(-c3ccccc3C#N)c3cc(F)ccc3n2S(=O)(=O)c2ccc(C(F)F)cc2)c1 [11/29] | < 100 nM | < 100 nM | < 100 nM |
| N#Cc1cc(C(=O)O)ccc1-c1cccc(-c2c(-c3ccccc3C#N)c3cc(F)ccc3n2S(=O)(=O)c2ccc(C(F)F)cc2)c1 [11/30] | < 100 nM | < 100 nM | < 100 nM |
| N#Cc1ccccc1-c1c(-c2cccc(-c3ccc(C(=O)O)cc3F)c2)n(S(=O)(=O)c2ccc(C(F)F)cc2)c2ccc(F)cc12 [11/31] | < 100 nM | < 100 nM | < 100 nM |
| N#Cc1ccccc1-c1c(-c2cccc(-c3ccc(C(=O)O)c(O)c3Cl)c2)n(S(=O)(=O)c2ccc(C(F)F)cc2)c2ccc(F)cc12 [11/32] | < 100 nM | < 100 nM | < 100 nM |
| N#Cc1cccc(F)c1-c1c(-c2cccc(-c3ccc(C(=O)O)cc3Cl)c2)n(S(=O)(=O)c2ccc(C(F)F)cc2)c2ccc(F)cc12 [11/34] | < 100 nM | < 100 nM | < 100 nM |
| Cc1cccc(C(F)F)c1-c1c(-c2cccc(-c3ccc(C(=O)O)cc3Cl)c2)n(S(=O)(=O)c2ccc(C(F)F)cc2)c2ccc(F)cc12 [11/38] | < 100 nM | < 100 nM | < 100 nM |
| COc1cccnc1-c1c(-c2cccc(-c3ccc(C(=O)O)cc3Cl)c2)n(S(=O)(=O)c2ccc(C(F)F)cc2)c2ccc(F)cc12 [11/40] | < 100 nM | < 100 nM | 100 to 1000 nM |
| O=C(O)c1ccc(-c2cccc(-c3c(-c4ncccc4OC(F)F)c4cc(F)ccc4n3S(=O)(=O)c3ccc(C(F)F)cc3)c2)c(Cl)c1 [11/41] | < 100 nM | < 100 nM | < 100 nM |
| N#CC1=C(c2c(-c3cccc(-c4ccc(C(=O)O)cc4Cl)c3)n(S(=O)(=O)c3ccc(C(F)F)cc3)c3ccc(F)cc23)CCCC1 [11/42] | 100 to 1000 nM | 100 to 1000 nM | > 10000 nM |
| O=C(O)c1ccc(-c2cccc(-c3c(-c4cccc5nncn45)c4cc(F)ccc4n3S(=O)(=O)c3ccc(C(F)F)cc3)c2)c(Cl)c1 [11/43] | 100 to 1000 nM | 100 to 1000 nM | 100 to 1000 nM |

| Structure (SMILES) | EC50 [1] | EC50 [2] | EC50 [3] |
| --- | --- | --- | --- |
| O=C(O)c1ccc(-c2cccc(-c3c(-c4cccc5c4OCO5)c4cc(F)ccc4n3S(=O)(=O)c3ccc(C(F)F)cc3)c2)c(Cl)c1 [11/44] | < 100 nM | < 100 nM | < 100 nM |
| O=C(O)c1ccc(-c2cccc(-c3c(-c4cccc5nonc45)c4cc(F)ccc4n3S(=O)(=O)c3ccc(C(F)F)cc3)c2)c(Cl)c1 [11/45] | < 100 nM | < 100 nM | < 100 nM |
| COc1cc(-c2c(-c3cccc(-c4ccc(C(=O)O)cc4Cl)c3)n(S(=O)(=O)c3ccc(C(F)F)cc3)c3ccc(F)cc23)c2c(C#N)cnn2c1 [11/46] | < 100 nM | < 100 nM | < 100 nM |
| Cn1cccc(-c2c(-c3cccc(-c4ccc(C(=O)O)cc4Cl)c3)n(S(=O)(=O)c3ccc(C(F)F)cc3)c3ccc(F)cc23)c1=O [11/47] | 100 to 1000 nM | 100 to 1000 nM | 100 to 1000 nM |
| N#Cc1cccc(C#N)c1-c1c(-c2cccc(-c3ccc(C(=O)O)c(F)c3F)c2)n(S(=O)(=O)c2ccc(C(F)F)cc2)c2ccc(F)cc12 [11/52] | < 100 nM | < 100 nM | < 100 nM |
| N#Cc1cccc(C#N)c1-c1c(-c2cccc(-c3c(F)c(F)c(C(=O)O)c(F)c3F)c2)n(S(=O)(=O)c2ccc(C(F)F)cc2)c2ccc(F)cc12 [11/54] | < 100 nM | < 100 nM | < 100 nM |
| N#Cc1cccc(C#N)c1-c1c(-c2cccc(-c3ccc(C(=O)O)cc3Cl)c2)n(S(=O)(=O)c2ccc(Cl)cc2)c2ccc(F)cc12 [11/55] | < 100 nM | < 100 nM | < 100 nM |
| N#Cc1cccc(C#N)c1-c1c(-c2cccc(-c3ccc(C(=O)O)cc3Cl)c2)n(S(=O)(=O)c2ccc(C(F)F)cc2)c2ccccc12 [11/56] | < 100 nM | < 100 nM | < 100 nM |
| N#Cc1sccc1-c1c(-c2cccc(-c3ccc(C(=O)O)cc3Cl)c2)n(S(=O)(=O)c2ccc(C(F)F)nc2)c2ccc(F)cc12 [11/57] | < 100 nM | < 100 nM | < 100 nM |
| N#Cc1cccc(C#N)c1-c1c(-c2cccc(C34CCC(C(=O)O)(CC3)CC4)c2)n(S(=O)(=O)c2ccc(C(F)F)cc2)c2ccc(F)cc12 [11/58] | < 100 nM | < 100 nM | < 100 nM |
| CC(O)(C(=O)O)c1ccc(-c2cccc(-c3c(-c4c(C#N)cccc4C#N)c4cc(F)ccc4n3S(=O)(=O)c3ccc(C(F)F)cc3)c2)cc1 (stereo not drawn) [11/59] | < 100 nM | < 100 nM | < 100 nM |
| N#Cc1cccc(C#N)c1-c1c(-c2cccc([C@H]3CC[C@@H](C(=O)O)CC3)c2)n(S(=O)(=O)c2ccc(C(F)F)cc2)c2ccc(F)cc12 [11/61] | < 100 nM | < 100 nM | 100 to 1000 nM |
| N#Cc1cccc(C#N)c1-c1c(-c2cccc(-c3ccc(C(=O)O)cc3F)c2)n(S(=O)(=O)C2CCC(C(F)(F)F)CC2)c2ccc(F)cc12 (stereo not drawn) [11/64] | < 100 nM | < 100 nM | 100 to 1000 nM |
| N#Cc1cccc(C#N)c1-c1c(-c2cccc(-c3ccc(C(=O)O)cc3Cl)c2)n(S(=O)(=O)C2CC3CCC2C3)c2ccc(F)cc12 (stereo not drawn) [11/66] | < 100 nM | < 100 nM | 100 to 1000 nM |
| N#Cc1cncc(C#N)c1-c1c(-c2cccc(-c3ccc(C(=O)O)cc3Cl)c2)n(S(=O)(=O)c2ccc(C(F)F)cc2)c2ccc(F)cc12 [11/67] | < 100 nM | < 100 nM | 100 to 1000 nM |
| Cn1ccc(-c2c(-c3cccc(-c4ccc(C(=O)O)cc4Cl)c3)n(S(=O)(=O)c3ccc(C(F)F)cc3)c3ccc(F)cc23)c1C#N [11/68] | < 100 nM | < 100 nM | < 100 nM |
